For 8 compounds, MIC and IC50 results are on record in EP4725957A1, “GROUP OF CYCLIC ALKALINE LIPOPEPTIDE COMPOUNDS, AND PREPARATION METHOD THEREFOR AND USE THEREOF” (Institute of Medicinal Biotechnology, Chinese Academy of …, priority 2023, dated 2024).

What all share (assay type): cell-based
Data set [1] concerns Acinetobacter baumannii ABA19-1. Conditions: ABA19-1. Summed up: (§1)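 Minimal inhibitory concentrations are measured following CLSI microdilution guidance in MH broth. Test concentrations run from 64 down to 0.03 mg/L in doubling steps, with a final bacterial load of (2-4) × 10^5 CFU/mL and 16-20 h incubation at 35-37°C.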
Data set [2] deals with Acinetobacter baumannii NCTC 13304 (OXA-27). The note with it: NCTC 13304. The method in brief: as §1
Data set [3] concerns Escherichia coli ATCC BAA-2340 (KPC). Conditions: ATCC BAA-2340. The method in brief: as §1
For data set [4], the system named is Escherichia coli ATCC BAA-2523. Conditions: ATCC BAA-2523. The method in brief: as §1
The subject of data set [5] is Klebsiella pneumoniae ATCC BAA-1705 (KPC). The note with it: ATCC BAA-1705. Summed up:
as §1

Data set [6] concerns Klebsiella pneumoniae KPN+19-15. Conditions: KPN+19-15. Summed up: as §1
Data set [7] deals with Pseudomonas aeruginosa ATCC 27853. Conditions: ATCC 27853. The method in brief:
as §1

The subject of data set [8] is Pseudomonas aeruginosa PAE19-3. Conditions: PAE19-3. Summed up:
as §1

The nature of data set [9]: Nephrotoxicity assay: in vitro cytotoxicity of HK-2 cells by CCK-8 assay. The note with it: human, HK-2 cells (human renal), 72 h incubation with drug-containing medium. Summed up:
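HK-2 human renal cells in RPMI-1640 with 10% FBS were exposed to compounds at final 12.5–500 µg/mL for 72 h, then CCK-8 for 3 h and OD450 read. Viability was normalised to drug-free wells; IC50 came from logarithmic regression over three repeats, with polymyxin B as positive drug.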
In general terms: Tetrazolium assays rely on reduction of a dye to a coloured formazan, in cell work by metabolically active cells.

In brackets after ≈: the same amount, converted by molar mass. Bridge positions count the residues as written; N and C are the ends. Square brackets hold non-standard residues; d marks the D form. Peptide text beside a SMILES is read from it. * marks the point of attachment. Heptanoyl(6-Me) = CC(C)CCCCC(=O)*; Nonanoyl = CCCCCCCCC(=O)*; X1 = CC[C@H](C)CCCCC(=O)*; dDab = NCC[C@@H](N)C(=O)O; Heptanoyl = CCCCCCC(=O)*; Octanoyl = CCCCCCCC(=O)*; Orn = NCCC[C@H](N)C(=O)O; Dab = NCC[C@H](N)C(=O)O; Dap = NC[C@H](N)C(=O)O A value given as a limit tells only on which side of the number the result lay.

What is called MIC is the lowest concentration found to suppress growth. In general, IC50 refers to the point on the concentration scale where inhibition reaches its midpoint. The low end stands for inhibition by little substance, the high end for a need for much substance.

For the compound `CC(C)CCCCC(=O)N[C@@H](CCN)C(=O)N[C@H](C(=O)N[C@H](CO)C(=O)N[C@H]1CCNC(=O)[C@H]([C@@H](C)O)NC(=O)[C@H](CCCN)NC(=O)[C@H](CCN)NC(=O)[C@H]([C@@H](C)O)NC(=O)[C@@H](Cc2ccccc2)NC(=O)[C@H](CCN)NC1=O)[C@@H](C)O` [Compound 87, 6-methylheptanoyl-Dab-Thr-D-Ser-ring(4-10)[Dab-Dab-D-Phe-Thr-Dab-Orn-Thr]] ({Heptanoyl(6-Me)}-[Dab]T[dS][Dab][Dab][dF]T[Dab][Orn]T; lactam 4-C), the minimum inhibitory concentration (MIC) is reported as 0.06 µg/mL (≈ 0.0509 µM) in data set [1]; no more than 0.03 µg/mL in data set [2]; 0.03 µg/mL (≈ 0.0255 µM) in [3]; 0.03 µg/mL (≈ 0.0255 µM) in data set [4]; 0.25 µg/mL (≈ 0.212 µM) in data set [5]; 0.5 µg/mL (≈ 0.424 µM) in [6]. The minimal inhibitory concentration (MIC) in data set [7] is listed as greater than 64 µg/mL; in data set [8], 64 µg/mL (≈ 54.3 µM). This compound also yielded an IC50 at 72 h in [9] greater than 500 µg/mL.

For `CCCCCCCC(=O)N[C@@H](CCN)C(=O)N[C@H](C(=O)N[C@H](CO)C(=O)N[C@H]1CCNC(=O)[C@H]([C@@H](C)O)NC(=O)[C@H](CCCN)NC(=O)[C@H](CCN)NC(=O)[C@H]([C@@H](C)O)NC(=O)[C@@H](Cc2ccccc2)NC(=O)[C@H](CCN)NC1=O)[C@@H](C)O` [Compound 88, Octanoyl-Dab-Thr-D-Ser-ring(4-10)[Dab-Dab-D-Phe-Thr-Dab-Orn-Thr]] (Octanoyl-[Dab]T[dS][Dab][Dab][dF]T[Dab][Orn]T; lactam 4-C), the minimal inhibitory concentration (MIC) in [1] is reported as 0.06 µg/mL (≈ 0.0509 µM); in [2], no more than 0.03 µg/mL; in [3] it was 0.03 µg/mL (≈ 0.0255 µM); in data set [4], 0.03 µg/mL (≈ 0.0255 µM); in data set [5] it was 0.25 µg/mL (≈ 0.212 µM); in data set [6], 0.5 µg/mL (≈ 0.424 µM). Also, the minimum inhibitory concentration (MIC) is greater than 64 µg/mL in data set [7] and 64 µg/mL (≈ 54.3 µM) in data set [8]. In data set [9], this compound showed an IC50 at 72 h greater than 500 µg/mL.

Regarding `CCCCCCC(=O)N[C@@H](CCN)C(=O)N[C@H](C(=O)N[C@H](CO)C(=O)N[C@H]1CCNC(=O)[C@H]([C@@H](C)O)NC(=O)[C@H](CCCN)NC(=O)[C@H](CCN)NC(=O)[C@H]([C@@H](C)O)NC(=O)[C@@H](Cc2ccccc2)NC(=O)[C@H](CCN)NC1=O)[C@@H](C)O` [Compound 89, Heptanoyl-Dab-Thr-D-Ser-ring(4-10)[Dab-Dab-D-Phe-Thr-Dab-Orn-Thr]] (Heptanoyl-[Dab]T[dS][Dab][Dab][dF]T[Dab][Orn]T; lactam 4-C), the MIC in data set [1] amounted to 0.06 µg/mL (≈ 0.0515 µM); in data set [2] it was 0.03 µg/mL (≈ 0.0258 µM); in [3] it was 0.125 µg/mL (≈ 0.107 µM); in data set [4], 0.125 µg/mL (≈ 0.107 µM); in data set [5], 0.25 µg/mL (≈ 0.215 µM); in data set [6], 0.5 µg/mL (≈ 0.429 µM). In addition, the MIC in data set [7] was greater than 64 µg/mL; in data set [8], 64 µg/mL (≈ 55 µM). The same compound displayed a 50% inhibitory concentration (IC50) at 72 h in data set [9] greater than 500 µg/mL.

For `CCCCCCCCC(=O)N[C@@H](CCN)C(=O)N[C@H](C(=O)N[C@H](CO)C(=O)N[C@H]1CCNC(=O)[C@H]([C@@H](C)O)NC(=O)[C@H](CCCN)NC(=O)[C@H](CCN)NC(=O)[C@H]([C@@H](C)O)NC(=O)[C@@H](Cc2ccccc2)NC(=O)[C@H](CCN)NC1=O)[C@@H](C)O` [Compound 90, Nonanoyl-Dab-Thr-D-Ser-ring(4-10)[Dab-Dab-D-Phe-Thr-Dab-Orn-Thr]] (Nonanoyl-[Dab]T[dS][Dab][Dab][dF]T[Dab][Orn]T; lactam 4-C), the minimal inhibitory concentration (MIC) is 0.06 µg/mL (≈ 0.0503 µM) in [1]; 0.03 µg/mL (≈ 0.0252 µM) in data set [2]; 0.25 µg/mL (≈ 0.21 µM) in data set [3]; 0.25 µg/mL (≈ 0.21 µM) in [4]; 0.25 µg/mL (≈ 0.21 µM) in data set [5]; 0.5 µg/mL (≈ 0.419 µM) in data set [6]. Further, the MIC in [7] is greater than 64 µg/mL; in data set [8], 64 µg/mL (≈ 53.7 µM). Also, half-maximal inhibition in data set [9] (IC50 at 72 h) required 320 ± 23.6 µg/mL (≈ 268 µM).

Consider `CC[C@H](C)CCCCC(=O)N[C@@H](CN)C(=O)N[C@H](C(=O)N[C@H](CCN)C(=O)N[C@H]1CCNC(=O)[C@H]([C@@H](C)O)NC(=O)[C@H](CCN)NC(=O)[C@H](CCN)NC(=O)[C@H](CC(C)C)NC(=O)[C@@H](Cc2ccccc2)NC(=O)[C@H](CCN)NC1=O)[C@@H](C)O` [Compound 91, (S)-6-methyloctanoyl-Dap-Thr-D-Dab-ring(4-10)[Dab-Dab-D-Phe-Leu-Dab-Dab-Thr]] (X1-[Dap]T[dDab][Dab][Dab][dF]L[Dab][Dab]T; lactam 4-C), for which the minimal inhibitory concentration (MIC) in [1], in data set [2], in data set [3], in data set [4], in data set [5] and in [6] was 0.03 µg/mL (≈ 0.0252 µM) each time. In addition, the minimum inhibitory concentration (MIC) in [7] and in [8] was 0.5 µg/mL (≈ 0.42 µM) each time. The same compound registered an IC50 at 72 h in data set [9] of 126 ± 19.2 µg/mL (≈ 106 µM).

For the compound `CC(C)CCCCC(=O)N[C@@H](CN)C(=O)N[C@H](C(=O)N[C@H](CCN)C(=O)N[C@H]1CCNC(=O)[C@H]([C@@H](C)O)NC(=O)[C@H](CCN)NC(=O)[C@H](CCN)NC(=O)[C@H](CC(C)C)NC(=O)[C@@H](Cc2ccccc2)NC(=O)[C@H](CCN)NC1=O)[C@@H](C)O` [Compound 92, 6-methylheptanoyl-Dap-Thr-D-Dab-ring(4-10)[Dab-Dab-D-Phe-Leu-Dab-Dab-Thr]] ({Heptanoyl(6-Me)}-[Dap]T[dDab][Dab][Dab][dF]L[Dab][Dab]T; lactam 4-C), the minimum inhibitory concentration (MIC) in data set [1], in data set [2], in [3], in data set [4], in data set [5] and in data set [6] was 0.03 µg/mL (≈ 0.0255 µM) throughout. For the same compound, the minimal inhibitory concentration (MIC) in data set [7] and in data set [8] was 0.5 µg/mL (≈ 0.425 µM) throughout. Half-maximal inhibition in data set [9] (IC50 at 72 h) required 228 ± 18.7 µg/mL (≈ 194 µM).

On to `CCCCCCCC(=O)N[C@@H](CN)C(=O)N[C@H](C(=O)N[C@H](CCN)C(=O)N[C@H]1CCNC(=O)[C@H]([C@@H](C)O)NC(=O)[C@H](CCN)NC(=O)[C@H](CCN)NC(=O)[C@H](CC(C)C)NC(=O)[C@@H](Cc2ccccc2)NC(=O)[C@H](CCN)NC1=O)[C@@H](C)O` [Compound 93, Octanoyl-Dap-Thr-D-Dab-ring(4-10)[Dab-Dab-D-Phe-Leu-Dab-Dab-Thr]] (Octanoyl-[Dap]T[dDab][Dab][Dab][dF]L[Dab][Dab]T; lactam 4-C), for which the minimal inhibitory concentration (MIC) in [1], in [2], in data set [3], in [4], in [5] and in [6] was 0.03 µg/mL (≈ 0.0255 µM) each time. In addition, the MIC in data set [7] and in data set [8] was 1 µg/mL (≈ 0.851 µM) throughout. Moreover, the IC50 at 72 h in data set [9] came to 239 ± 19.1 µg/mL (≈ 204 µM).

For the compound `CCCCCCC(=O)N[C@@H](CN)C(=O)N[C@H](C(=O)N[C@H](CCN)C(=O)N[C@H]1CCNC(=O)[C@H]([C@@H](C)O)NC(=O)[C@H](CCN)NC(=O)[C@H](CCN)NC(=O)[C@H](CC(C)C)NC(=O)[C@@H](Cc2ccccc2)NC(=O)[C@H](CCN)NC1=O)[C@@H](C)O` [Compound 94, Heptanoyl-Dap-Thr-D-Dab-ring(4-10)[Dab-Dab-D-Phe-Leu-Dab-Dab-Thr]] (Heptanoyl-[Dap]T[dDab][Dab][Dab][dF]L[Dab][Dab]T; lactam 4-C), the minimal inhibitory concentration (MIC) in data set [1] was found to be 0.03 µg/mL (≈ 0.0258 µM); in [2], 0.03 µg/mL (≈ 0.0258 µM); in data set [3], 0.06 µg/mL (≈ 0.0517 µM); in data set [4] it was 0.06 µg/mL (≈ 0.0517 µM); in data set [5], 0.03 µg/mL (≈ 0.0258 µM); in data set [6], 0.03 µg/mL (≈ 0.0258 µM). In addition, the minimum inhibitory concentration (MIC) in data set [7] and in data set [8] was 1 µg/mL (≈ 0.861 µM) each time. In addition, the IC50 at 72 h in [9] turned out to be 298 ± 30.7 µg/mL (≈ 257 µM).
